Common to all, as to format: binding
Assay [1] has as its target human PCSK9 / human LDLR EGFa domain interaction (Homo sapiens (Human), UniProt Q8NBP7). The experiment in a line: TR-FRET assay of inhibition of the PCSK9-LDLR protein-protein interaction. To be noted: TR-FRET, 20 nM human PCSK9, 20 nM human LDLR EGFa domain, 2 hours room temperature; read-out: IC50. A digest of the protocol:
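Half-maximal inhibitory concentrations came from 4-parameter fits of dose-response data. Proteins: biotinylated PCSK9, His-tagged LDLR EGFa, 20 nM each; labels 5 nM; 2 h, room temperature; buffer 50 mM HEPES, 150 mM NaCl, 5 mM CaCl2.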
On the technique in general: TR-FRET usually uses a lanthanide donor and a delayed reading to cut background.

In assay [2] the target is T1, PCSK9 (Homo sapiens (Human), UniProt Q8NBP7). The experiment in a line: PCSK9 Alexa FRET Standard assay (displacement of AlexaFluor647 tagged cyclic peptide Reagent A). To be noted: PCSK9 Alexa FRET Standard assay, 0.5 nM PCSK9, 20 nM AF cyclic peptide Reagent A; read-out: IC50. A digest of the protocol:
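TR-FRET displacement: 0.5 nM biotinylated PCSK9 with 1.25 nM Strep-Eu and 20 nM AlexaFluor-tagged cyclic peptide (final) in 50 mM HEPES pH 7.4, 0.15 M NaCl, 5 mM CaCl2, 0.01% BSA, 0.01% P20, ≥2 h at room temperature. IC50 from sigmoidal fit, converted to Ki via peptide KD; falling Eu counts flagged false positives.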

For assay [3], the target named is T1, PCSK9. The experiment in a line: PCSK9 Alexa FRET Plus assay (displacement of AlexaFluor647 tagged cyclic peptide Reagent B). The note with it: Alexa FRET Plus, 0.5 nM PCSK9, 960 nM AF cyclic peptide Reagent B; read-out: IC50. A digest of the protocol:
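TR-FRET displacement with final 0.5 nM biotinylated PCSK9, 1.25 nM Strep-Eu and 960 nM AlexaFluor-tagged cyclic peptide in HEPES pH 7.4, NaCl, CaCl2, BSA, P20; ≥2 h at room temperature. IC50 from sigmoidal fit, converted to Ki using peptide KD. Falling europium counts flagged false positives.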

Structures are written as SMILES. pIC50: −log10 of the molar value. Starred links: 1 amine or outer side, 2 acyl side, 3 side chain; linkers in the order of their positions; H or OH if unused. Positions of bridges follow the written chain, without caps; N, C: chain ends. Non-standard residues stand in square brackets, D forms with d. Residues, ends and D or L forms follow the SMILES beside them. ξ: configuration not given here. NHCH2(1,3-C6H4)CH2CO = O=C(Cc1cccc(CN[*:1])c1)[*:2]; Pro(cis-4-OPh) = O=C(O)[C@@H]1C[C@H](Oc2ccccc2)CN1; Trp(5-OH) = N[C@@H](Cc1c[nH]c2ccc(O)cc12)C(=O)O; Trp(5-F) = N[C@@H](Cc1c[nH]c2ccc(F)cc12)C(=O)O; Phe(4-CH2NH2) = NCc1ccc(C[C@H](N)C(=O)O)cc1; isoGln = NC(=O)[C@H](CCC(=O)[*:2])N[*:1]; Nle(6-COOH) = N[C@@H](CCCCC(=O)O)C(=O)O; X4 = O=C(CCSCc1cccc(CSCCN[*:1])c1)[*:2]; γGlu = O=C(O)[C@H](CCC(=O)[*:2])N[*:1]; mXylylene = c1cc(C[*:1])cc(C[*:2])c1; d(aThr) = C[C@@H](O)[C@@H](N)C(=O)O; Glutaryl = O=C(CCCC(=O)[*:2])[*:1]; X7 = O=C(Cc1ccc(CN[*:1])cc1)[*:2]; aThr = C[C@H](O)[C@H](N)C(=O)O; αMeP = C[C@@]1(C(=O)O)CCCN1; hSer = N[C@@H](CCO)C(=O)O; ξD = NC(CC(=O)O)C(=O)O; X2 = O=C(C[*:2])[*:1]; Mpa = O=C(O)CCS

Sequence of human PCSK9 / human LDLR EGFa domain interaction (Q8NBP7 153-692): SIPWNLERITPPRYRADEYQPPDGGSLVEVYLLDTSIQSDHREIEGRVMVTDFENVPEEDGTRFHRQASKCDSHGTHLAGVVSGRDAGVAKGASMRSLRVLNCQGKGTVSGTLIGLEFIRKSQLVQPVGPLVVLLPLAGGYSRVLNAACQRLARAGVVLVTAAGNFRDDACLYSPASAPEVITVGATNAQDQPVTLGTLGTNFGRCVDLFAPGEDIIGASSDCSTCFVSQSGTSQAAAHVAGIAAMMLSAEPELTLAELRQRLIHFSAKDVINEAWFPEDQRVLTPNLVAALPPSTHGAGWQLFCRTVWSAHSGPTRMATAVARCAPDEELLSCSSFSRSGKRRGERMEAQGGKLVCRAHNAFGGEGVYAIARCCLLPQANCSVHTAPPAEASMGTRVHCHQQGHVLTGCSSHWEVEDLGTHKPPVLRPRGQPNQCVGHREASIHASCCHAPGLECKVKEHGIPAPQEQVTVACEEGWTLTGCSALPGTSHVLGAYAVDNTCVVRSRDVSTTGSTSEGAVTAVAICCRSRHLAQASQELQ
Sequence of human PCSK9 / human LDLR EGFa domain interaction (Q8NBP7 31-152 partner): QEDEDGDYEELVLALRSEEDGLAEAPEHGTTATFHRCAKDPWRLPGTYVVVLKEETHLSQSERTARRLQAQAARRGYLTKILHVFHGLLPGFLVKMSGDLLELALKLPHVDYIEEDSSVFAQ
T1 sequence (Q8NBP7 153-692): as the sequence (Q8NBP7 153-692) above

In general, pIC50 refers to the negative decadic logarithm of the IC50, by convention in mol/L. With `CC(=O)N[C@H]1CCCCNC(=O)COc2ccc(cc2)C[C@@H](C(N)=O)NC(=O)[C@]2(C)CCCN2C(=O)[C@H](Cc2ccc(O)cc2)NC(=O)[C@H](Cc2cnc[nH]2)NC(=O)[C@H](CC(=O)O)NC(=O)[C@H](Cc2c[nH]c3ccc(F)cc23)NC(=O)[C@H](Cc2c[nH]c3ccc(F)cc23)NC(=O)CNC1=O` [Compound 365] (Ac-KG[Trp(5-F)][Trp(5-F)]DHY[αMeP]Y-NH2; linker 1-9 via X2), the figures for the pIC50 in assay [1], in assay [2] and in assay [3] were 7.00 to 10.00, 7.00 to 9.96 and 7.00 to 10.00, respectively.
In the case of `C[C@@H]1NC(=O)CCCC(=O)NCc2ccc(cc2)C[C@@H](C(N)=O)NC(=O)[C@]2(C)CCCN2C(=O)[C@H](Cc2ccc(O)cc2)NC(=O)[C@H](Cc2cnc[nH]2)NC(=O)[C@H](CC(=O)O)NC(=O)[C@H](Cc2c[nH]c3ccc(F)cc23)NC(=O)[C@H](Cc2c[nH]c3ccc(F)cc23)NC(=O)CNC1=O` [Compound 366] (AG[Trp(5-F)][Trp(5-F)]DHY[αMeP][Phe(4-CH2NH2)]-NH2; linker N-9 via Glutaryl), the values for the pIC50 in assay [1], in assay [2] and in assay [3] were 7.00 to 10.00, 7.00 to 9.96 and 7.00 to 10.00, respectively.
Consider `NCCCC[C@@H]1NC(=O)CCSCc2cccc(c2)CSC[C@@H](C(N)=O)NC(=O)[C@@H]2C[C@H](Oc3ccccc3)CN2C(=O)[C@H](Cc2ccc(O)cc2)NC(=O)[C@H](Cc2cnc[nH]2)NC(=O)[C@H](CC(=O)O)NC(=O)[C@H](Cc2c[nH]c3ccc(F)cc23)NC(=O)[C@H](Cc2c[nH]c3ccc(F)cc23)NC(=O)CNC1=O` [Compound 367] ([Mpa]KG[Trp(5-F)][Trp(5-F)]DHY[Pro(cis-4-OPh)]C-NH2; linker 1-10 via mXylylene), for which the figures for the pIC50 in assay [1], in assay [2] and in assay [3] were 7.00 to 10.00, 6.00 to 7.00 and 5.30 to 6.30, respectively.
As to `C[C@@]12CCCN1C(=O)[C@H](Cc1ccc(O)cc1)NC(=O)[C@H](Cc1cnc[nH]1)NC(=O)[C@H](CC(=O)O)NC(=O)[C@H](Cc1c[nH]c3ccc(F)cc13)NC(=O)[C@H](Cc1c[nH]c3ccc(F)cc13)NC(=O)CNC(=O)[C@H](CCO)NC(=O)CCSCc1cccc(c1)CSC[C@@H](C(N)=O)NC2=O` [Compound 376] ([Mpa][hSer]G[Trp(5-F)][Trp(5-F)]DHY[αMeP]C-NH2; linker 1-10 via mXylylene), the figures for the pIC50 in assay [1], in assay [2] and in assay [3] were 7.00 to 10.00, 7.00 to 9.96 and 6.30 to 7.00, respectively.
For `CO[C@@H](C)[C@@H]1NC(=O)CCSCc2cccc(c2)CSC[C@@H](C(N)=O)NC(=O)[C@]2(C)CCCN2C(=O)[C@H](Cc2ccc(O)cc2)NC(=O)[C@H](Cc2cnc[nH]2)NC(=O)[C@H](CC(=O)O)NC(=O)[C@H](Cc2c[nH]c3ccc(F)cc23)NC(=O)[C@H](Cc2c[nH]c3ccc(F)cc23)NC(=O)CNC1=O` [Compound 377] ([Mpa][aThr](Me)G[Trp(5-F)][Trp(5-F)]DHY[αMeP]C-NH2; linker 1-10 via mXylylene), in that order: 7.00 to 10.00, 7.00 to 9.96 and 6.30 to 7.00.
For `COc1ccc(C[C@@H]2NC(=O)[C@@H]([C@@H](C)O)NC(=O)[C@H](CCCCC(=O)O)NC(=O)[C@H](Cc3c[nH]c4ccc(F)cc34)NC(=O)[C@H](Cc3ccc(CN)cc3)NC(=O)[C@@H](C)NC(=O)[C@H](C)NC(=O)CCSCc3cccc(c3)CSCCNC(=O)[C@]3(C)CCCN3C2=O)cc1` [Compound 385] (cyclo(A[dA][Phe(4-CH2NH2)][Trp(5-F)][Nle(6-COOH)][d(aThr)]Y(Me)[αMeP][X4])), in that order: 7.00 to 10.00, 7.00 to 9.96 and 7.00 to 10.00.
On the same counts, the results for `COc1ccc(C[C@@H]2NC(=O)[C@H](Cc3cnc[nH]3)NC(=O)[C@H](CC(=O)O)NC(=O)[C@H](Cc3c[nH]c4ccc(F)cc34)NC(=O)[C@H](Cc3c[nH]c4ccc(F)cc34)NC(=O)[C@@H](C)NC(=O)[C@H](NC(C)=O)CCCCNC(=O)Cc3cccc(c3)CNC(=O)CC[C@@H](C(=O)O)NC(=O)[C@]3(C)CCCN3C2=O)cc1` [Compound 396] (Ac-[dK][dA][Trp(5-F)][Trp(5-F)]DHY(Me)[αMeP][γGlu][NHCH2(1,3-C6H4)CH2CO]; lactam 1-C) are 7.00 to 10.00, 7.00 to 9.96 and 6.30 to 7.00.
For the compound `COc1ccc(C[C@@H]2NC(=O)[C@H](Cc3cnc[nH]3)NC(=O)[C@H](CC(=O)O)NC(=O)[C@H](Cc3c[nH]c4ccc(F)cc34)NC(=O)[C@H](Cc3c[nH]c4ccc(F)cc34)NC(=O)[C@@H](C)NC(=O)[C@H](NC(C)=O)CCCCNC(=O)Cc3ccc(cc3)CNC(=O)CC[C@@H](C(N)=O)NC(=O)[C@]3(C)CCCN3C2=O)cc1` [Compound 398] (Ac-[dK][dA][Trp(5-F)][Trp(5-F)]DHY(Me)[αMeP][isoGln][X7]; lactam 1-C), the pIC50 in assay [1] was 7.00 to 10.00; in assay [2], 7.00 to 9.96; in assay [3] it was 6.30 to 7.00.
On the same counts, the results for `C[C@@]12CCCN1C(=O)[C@H](Cc1ccc(O)cc1)NC(=O)[C@H](Cc1cnc[nH]1)NC(=O)[C@H](CC(=O)O)NC(=O)[C@H](Cc1c[nH]c3ccc(O)cc13)NC(=O)[C@H](Cc1c[nH]c3ccc(F)cc13)NC(=O)CNC(=O)[C@H](CCCCN)NC(=O)CCSCc1cccc(c1)CSC[C@@H](C(N)=O)NC2=O` [Compound 399] ([Mpa]KG[Trp(5-F)][Trp(5-OH)]DHY[αMeP]C-NH2; linker 1-10 via mXylylene) are 7.00 to 10.00, 7.00 to 9.96 and 6.30 to 7.00.
For `COc1ccc(C[C@@H]2NC(=O)[C@H](Cc3cnc[nH]3)NC(=O)[C@H](CC(=O)O)NC(=O)[C@H](Cc3c[nH]c4ccc(F)cc34)NC(=O)[C@H](Cc3c[nH]c4ccc(F)cc34)NC(=O)[C@@H](C)NC(=O)Cc3cccc(c3)CNC(=O)CC(C(=O)O)NC(=O)[C@]3(C)CCCN3C2=O)cc1` (stereo partly drawn) [Compound 401] ([NHCH2(1,3-C6H4)CH2CO][dA][Trp(5-F)][Trp(5-F)]DHY(Me)[αMeP][ξD]-OH; lactam N-9), in that order: 7.00 to 10.00, 7.00 to 9.96 and 7.00 to 10.00.
`COc1ccc(C[C@@H]2NC(=O)[C@@H]3CCCCC(=O)N[C@H]4C[C@@H](C(=O)N3)N(C4)C(=O)[C@H](Cc3c[nH]c4ccc(F)cc34)NC(=O)[C@H](Cc3c[nH]c4ccc(F)cc34)NC(=O)[C@@H](C)NC(=O)[C@H](CCCN=[N+]=[N-])NC(=O)CCSCc3cccc(c3)CCSCNC(=O)[C@]3(C)CCCN3C2=O)cc1` [Compound 520]: the pIC50 in assay [1] was 7.00 to 10.00; in assay [2], 7.00 to 9.96; in assay [3], 7.00 to 10.00.

For the origin of these results see US11530244B2, “Cyclic polypeptides for PCSK9 inhibition” (priority 2018, dated 2022).
